Measurements as given in patent publication US20260007681A1, “INDOLE DERIVATIVES AS ESTROGEN RECEPTOR DEGRADERS” (REGENTS OF THE UNIVERSITY OF MICHIGAN, priority 2022, published 2026).
Structures can show the parent of a compound that is named as a salt. Where two headings read alike, the source gives them in different places.

Assays:
CRBN/DDB1 = CRBN/DDB1 (Homo sapiens (Human), UniProt Q96SW2); format: binding
Method: The binding potency was determined using H-TRF assay technology (Perkin Elmer). Compounds were serially diluted in DMSO and 0.2 μL volume was transferred to white 384-well plate.

ER in T47D cells = ER in T47D cells (Homo sapiens (Human), UniProt P03372); experiment: In-cell western (ICW) ER degradation assay in T47D cells (Compounds A1-A70); format: cell-based; details: for DC50: ER degradation, 0.02 to 300 nM; for Dmax: T47D, read-out: T47D ICW Dmax (%)
Sequence of ER in T47D cells (P03372 whole entry): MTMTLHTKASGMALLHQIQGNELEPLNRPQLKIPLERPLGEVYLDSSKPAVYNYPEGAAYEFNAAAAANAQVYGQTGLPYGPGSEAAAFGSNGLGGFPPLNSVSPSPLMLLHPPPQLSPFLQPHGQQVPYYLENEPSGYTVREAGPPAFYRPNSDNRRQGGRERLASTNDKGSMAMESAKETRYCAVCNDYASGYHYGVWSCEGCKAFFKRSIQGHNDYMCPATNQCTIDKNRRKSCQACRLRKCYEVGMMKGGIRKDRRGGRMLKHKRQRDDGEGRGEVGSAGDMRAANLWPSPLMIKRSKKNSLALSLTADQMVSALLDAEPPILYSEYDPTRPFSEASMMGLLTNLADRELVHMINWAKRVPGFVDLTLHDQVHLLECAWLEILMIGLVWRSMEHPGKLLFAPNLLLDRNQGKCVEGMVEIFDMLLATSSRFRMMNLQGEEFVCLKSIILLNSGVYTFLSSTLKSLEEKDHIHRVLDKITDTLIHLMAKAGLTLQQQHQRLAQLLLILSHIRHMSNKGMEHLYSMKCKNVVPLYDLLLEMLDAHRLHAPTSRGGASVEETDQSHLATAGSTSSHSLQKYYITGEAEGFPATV

ER in MCF-7 cells = ER in MCF-7 cells (Homo sapiens (Human), UniProt P03372); experiment: In-cell western (ICW) ER degradation assay in MCF-7 cells (Compounds A1-A70); format: cell-based; details: for DC50: ER degradation, 0.02 to 300 nM, read-out: MCF7 ICW DC50
Sequence of ER in MCF-7 cells (P03372 whole entry): as above

[1] = His tagged CRBN+DDB-DLS7+CXU4, Cy5-labeled Thalidomide probe, one hour incubation, read-out: CRBN HTRF IC50
[2] = maximal ER degradation, T47D cells, 16 hrs treatment
[3] = MCF7, maximal ER degradation, MCF-7 cells, 16 hrs treatment, read-out: MCF7 ICW Dmax (%)
[4] = MCF7, read-out: MCF7 ICW Dmax (%)

| SMILES | IC50 (CRBN/DDB1; [1]) | DC50 (ER in T47D cells; T47D cells, 16 hrs treatment) | Dmax (ER in T47D cells; [2]) | DC50 (ER in MCF-7 cells; MCF-7 cells, 16 hrs treatment) | Dmax (ER in MCF-7 cells; [3]) | IC50 (CRBN/DDB1) | Dmax (ER in T47D cells) | Dmax (ER in MCF-7 cells; [4]) |
| --- | --- | --- | --- | --- | --- | --- | --- | --- |
| COc1cc(N2CCC(CN3CCC(c4ccc5c(c4)n(C)c(=O)n5C4CCC(=O)NC4=O)CC3)CC2)ccc1[C@@H]1c2[nH]c3ccccc3c2C[C@@H](C)N1CC(F)F (stereo partly drawn) [Compound A35, 3-(5-(1-((1-(4-((1R,3R)-2-(2,2-difluoroethyl)-3-methyl-2,3,4,9-tetrahydro-1H-pyrido[3,4-b]indol-1-yl)-3-methoxyphenyl)piperidin-4-yl)methyl)piperidin-4-yl)-3-methyl-2-oxo-2,3-dihydro-1H-benzo[d]imidazol-1-yl)piperidine-2,6-dione] | 50 to 500 nM | < 1 nM | 50 to 75% | 10 to 100 nM | 25 to 50% | – | – | – |
| COc1cc(N2CCC(CN3CCN4c5ccc6c(c5OC[C@H]4C3)CN([C@H]3CCC(=O)NC3=O)C6=O)CC2)ccc1[C@H]1c2[nH]c3ccccc3c2C[C@@H](C)N1CC(F)F [Compound A39, (S)-3-((R)-7-((1-(4-((1S,3R)-2-(2,2-difluoroethyl)-3-methyl-2,3,4,9-tetrahydro-1H-pyrido[3,4-b]indol-1-yl)-3-methoxyphenyl)piperidin-4-yl)methyl)-1-oxo-1,3,5,5a,6,7,8,9-octahydro-2H-pyrazino[1′,2′:4,5][1,4]oxazino[2,3-e]isoindol-2-yl)piperidine-2,6-dione] | 50 to 500 nM | < 1 nM | 50 to 75% | < 1 nM | 50 to 75% | – | – | – |
| COc1cc(N2CCC(CN3CCN4c5ccc6c(c5OC[C@@H]4C3)CN([C@@H]3CCC(=O)NC3=O)C6=O)CC2)ccc1[C@@H]1c2[nH]c3ccccc3c2C[C@@H](C)N1CC(F)F [Compound A42, (R)-3-((S)-7-((1-(4-((1R,3R)-2-(2,2-difluoroethyl)-3-methyl-2,3,4,9-tetrahydro-1H-pyrido[3,4-b]indol-1-yl)-3-methoxyphenyl)piperidin-4-yl)methyl)-1-oxo-1,3,5,5a,6,7,8,9-octahydro-2H-pyrazino[1′,2′:4,5][1,4]oxazino[2,3-e]isoindol-2-yl)piperidine-2,6-dione] | 500 to 5000 nM | < 1 nM | 50 to 75% | < 1 nM | 50 to 75% | – | – | – |
| COc1cc(N2CCC(CN3CCN(c4ccc(C(=O)N[C@H]5CCC(=O)NC5=O)nc4)CC3)CC2)ccc1[C@@H]1c2[nH]c3ccccc3c2C[C@@H](C)N1CC(F)F [Compound A43, 5-(4-((1-(4-((1R,3R)-2-(2,2-difluoroethyl)-3-methyl-2,3,4,9-tetrahydro-1H-pyrido[3,4-b]indol-1-yl)-3-methoxyphenyl)piperidin-4-yl)methyl)piperazin-1-yl)-N—((S)-2,6-dioxopiperidin-3-yl)picolinamide formate] | 500 to 5000 nM | < 1 nM | 50 to 75% | < 1 nM | 50 to 75% | – | – | – |
| COc1cc(N2CCC(CN3CCN4c5cc6c(cc5OC[C@@H]4C3)C(=O)N([C@@H]3CCC(=O)NC3=O)C6)CC2)ccc1[C@H]1c2[nH]c3ccccc3c2C[C@H](C)N1CC(F)F [Compound A44, (R)-3-((S)-3-((1-(4-((1S,3S)-2-(2,2-difluoroethyl)-3-methyl-2,3,4,9-tetrahydro-1H-pyrido[3,4-b]indol-1-yl)-3-methoxyphenyl)piperidin-4-yl)methyl)-8-oxo-1,2,3,4,4a,5,8,10-octahydro-9H-pyrazino[1′,2′:4,5][1,4]oxazino[2,3-f]isoindol-9-yl)piperidine-2,6-dione] | 50 to 500 nM | < 1 nM | 50 to 75% | < 1 nM | 50 to 75% | – | – | – |
| COc1cc(N2CCC3(CCN(C(=O)CN4Cc5cnc(C(=O)N[C@H]6CCC(=O)NC6=O)cc5C4)CC3)CC2)ccc1[C@@H]1c2[nH]c3ccccc3c2C[C@@H](C)N1CC(F)F [Compound A50, 2-(2-(9-(4-((1R,3R)-2-(2,2-difluoroethyl)-3-methyl-2,3,4,9-tetrahydro-1H-pyrido[3,4-b]indol-1-yl)-3-methoxyphenyl)-3,9-diazaspiro[5.5]undecan-3-yl)-2-oxoethyl)-N—((S)-2,6-dioxopiperidin-3-yl)-2,3-dihydro-1H-pyrrolo[3,4-c]pyridine-6-carboxamide formate] | – | – | – | – | – | 500 to 5000 nM | 50 to 75% | 50 to 75% |
| COc1cc(N2CCC(CN3CCN4c5ccc(C(=O)NC6CCC(=O)NC6=O)nc5OC[C@H]4C3)CC2)ccc1[C@@H]1c2[nH]c3ccccc3c2C[C@@H](C)N1CC(F)F (stereo partly drawn) [Compound A51, (4aR)-3-((1-(4-((1R,3R)-2-(2,2-difluoroethyl)-3-methyl-2,3,4,9-tetrahydro-1H-pyrido[3,4-b]indol-1-yl)-3-methoxyphenyl)piperidin-4-yl)methyl)-N-(2,6-dioxopiperidin-3-yl)-1,2,3,4,4a,5-hexahydropyrazino[1,2-d]pyrido[2,3-b][1,4]oxazine-8-carboxamide formate] | 500 to 5000 nM | < 1 nM | > 75% | < 1 nM | – | – | – | > 75% |
| COc1cc(N2CCC(CN3CCN(c4ccc(C(=O)NC5CCC(=O)NC5=O)nc4OC)CC3)CC2)ccc1[C@@H]1c2[nH]c3ccccc3c2C[C@@H](C)N1CC(F)F (stereo partly drawn) [Compound A52, 5-(4-((1-(4-((1R,3R)-2-(2,2-difluoroethyl)-3-methyl-2,3,4,9-tetrahydro-1H-pyrido[3,4-b]indol-1-yl)-3-methoxyphenyl)piperidin-4-yl)methyl)piperazin-1-yl)-N-(2,6-dioxopiperidin-3-yl)-6-methoxypicolinamide] | > 5000 nM | 1 to 10 nM | 25 to 50% | < 1 nM | 25 to 50% | – | – | – |
| COc1cc(N2CCC(CN3CCC(c4ccc(C(=O)NC5CCC(=O)NC5=O)nc4)CC3)CC2)ccc1[C@@H]1c2[nH]c3ccccc3c2C[C@@H](C)N1CC(F)F (stereo partly drawn) [Compound A53, 5-(1-((1-(4-((1R,3R)-2-(2,2-difluoroethyl)-3-methyl-2,3,4,9-tetrahydro-1H-pyrido[3,4-b]indol-1-yl)-3-methoxyphenyl)piperidin-4-yl)methyl)piperidin-4-yl)-N-(2,6-dioxopiperidin-3-yl)picolinamide] | 500 to 5000 nM | > 100 nM | < 25% | < 1 nM | 25 to 50% | – | – | – |
| COc1cc(N2CCC(CN3CCN4c5ccc(C(=O)NC6CCC(=O)NC6=O)nc5OC[C@H]4C3)CC2)ccc1[C@H]1c2[nH]c3ccccc3c2C[C@H](C)N1CC(F)F (stereo partly drawn) [Compound A54, (4aR)-3-((1-(4-((1S,3S)-2-(2,2-difluoroethyl)-3-methyl-2,3,4,9-tetrahydro-1H-pyrido[3,4-b]indol-1-yl)-3-methoxyphenyl)piperidin-4-yl)methyl)-N-(2,6-dioxopiperidin-3-yl)-1,2,3,4,4a,5-hexahydropyrazino[1,2-d]pyrido[2,3-b][1,4]oxazine-8-carboxamide] | 500 to 5000 nM | < 1 nM | 50 to 75% | < 1 nM | 50 to 75% | – | – | – |
| COc1cc(N2CCC(CN3CCN(c4ccc(C(=O)N[C@@H]5CCC(=O)NC5=O)nc4)CC3)CC2)ccc1[C@@H]1c2[nH]c3ccccc3c2C[C@@H](C)N1CC(F)F [Compound A57, 5-(4-((1-(4-((1R,3R)-2-(2,2-difluoroethyl)-3-methyl-2,3,4,9-tetrahydro-1H-pyrido[3,4-b]indol-1-yl)-3-methoxyphenyl)piperidin-4-yl)methyl)piperazin-1-yl)-N-((R)-2,6-dioxopiperidin-3-yl)picolinamide formate] | < 50 nM | < 1 nM | 25 to 50% | < 1 nM | 50 to 75% | – | – | – |
| C[C@H]1Cc2c([nH]c3ccccc23)[C@H](c2cnc(N3CCC4(CC3)C[C@H](CN3CCN5c6ccc7c(c6OC[C@@H]5C3)CN([C@@H]3CCC(=O)NC3=O)C7=O)CO4)nc2)N1CC(F)F [Compound A58, (R)-3-((S)-7-(((R)-8-(5-((1S,3S)-2-(2,2-difluoroethyl)-3-methyl-2,3,4,9-tetrahydro-1H-pyrido[3,4-b]indol-1-yl)pyrimidin-2-yl)-1-oxa-8-azaspiro[4.5]decan-3-yl)methyl)-1-oxo-1,3,5,5a,6,7,8,9-octahydro-2H-pyrazino[1′,2′:4,5][1,4]oxazino[2,3-e]isoindol-2-yl)piperidine-2,6-dione] | 50 to 500 nM | < 1 nM | 50 to 75% | < 1 nM | 50 to 75% | – | – | – |
| C[C@H]1Cc2c([nH]c3ccccc23)[C@H](c2cnc(N3CCC4(CC3)C[C@H](CN3CCN5c6cc7c(cc6OC[C@H]5C3)C(=O)N([C@@H]3CCC(=O)NC3=O)C7)CO4)nc2)N1CC(F)F [Compound A60, (R)-3-((R)-3-(((R)-8-(5-((1S,3S)-2-(2,2-difluoroethyl)-3-methyl-2,3,4,9-tetrahydro-1H-pyrido[3,4-b]indol-1-yl)pyrimidin-2-yl)-1-oxa-8-azaspiro[4.5]decan-3-yl)methyl)-8-oxo-1,2,3,4,4a,5,8,10-octahydro-9H-pyrazino[1′,2′:4,5][1,4]oxazino[2,3-f]isoindol-9-yl)piperidine-2,6-dione] | 500 to 5000 nM | < 1 nM | 50 to 75% | < 1 nM | 50 to 75% | – | – | – |
